According to patent publication US8962608B2, “Cycloalkylnitrile pyrazole carboxamides as janus kinase inhibitors” (Merck Sharp & Dohme Corp., priority 2011, dated 2015):

What was measured:
[1] = target: JAK1 (recombinant purified GST-tagged catalytic domain) (Homo sapiens (Human), UniProt P23458); assay: biochemical;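 further: biochemical assay with HTRF read-out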
[2] = target: JAK2 (recombinant purified GST-tagged catalytic domain) (Homo sapiens (Human), UniProt O60674); assay: biochemical;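 further: biochemical JAK kinase assay with HTRF detection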
Chain of JAK2 (recombinant purified GST-tagged catalytic domain) (O60674 849-1124): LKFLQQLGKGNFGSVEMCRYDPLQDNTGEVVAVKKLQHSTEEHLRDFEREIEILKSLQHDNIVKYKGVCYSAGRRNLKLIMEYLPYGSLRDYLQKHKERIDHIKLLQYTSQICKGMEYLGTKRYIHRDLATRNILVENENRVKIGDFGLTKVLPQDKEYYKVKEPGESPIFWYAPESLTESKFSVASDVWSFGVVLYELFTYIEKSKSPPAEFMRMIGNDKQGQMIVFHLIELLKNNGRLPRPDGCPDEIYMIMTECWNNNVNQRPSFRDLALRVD

Chain of JAK1 (recombinant purified GST-tagged catalytic domain) (P23458 875-1153): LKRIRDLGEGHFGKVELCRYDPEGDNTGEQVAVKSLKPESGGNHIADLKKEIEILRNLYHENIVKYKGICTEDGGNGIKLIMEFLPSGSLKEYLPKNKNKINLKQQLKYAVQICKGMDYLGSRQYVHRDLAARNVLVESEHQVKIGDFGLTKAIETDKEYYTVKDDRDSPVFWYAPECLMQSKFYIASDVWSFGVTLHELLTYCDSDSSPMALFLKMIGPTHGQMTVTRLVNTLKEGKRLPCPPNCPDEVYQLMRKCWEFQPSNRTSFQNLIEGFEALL

SMILES	IC50 [1] [nM]	IC50 [2] [nM]
N#C[C@H]1C[C@H](O)CC[C@@H]1n1cc(C(N)=O)c(Nc2ccc(C(F)(F)F)cc2)n1 (single isomer, unassigned) [Example 25-5, 1-[(1S,2S,4R or 1R,2R,4S)-2-cyano-4-hydroxycyclohexyl]-3-{[4-(trifluoromethyl)phenyl]amino}-1H-pyrazole-4-carboxamide]	1	10
N#C[C@H]1C[C@H](O)CC[C@@H]1n1cc(C(N)=O)c(Nc2ccc(Cl)c(Cl)c2)n1 (single isomer, unassigned) [Example 25-6, 1-[(1S,2S,4R or 1R,2R,4S)-2-cyano-4-hydroxycyclohexyl]-3-[(3,4-dichlorophenyl)amino]-1H-pyrazole-4-carboxamide]	3	20
N#C[C@H]1C[C@H](O)CC[C@@H]1n1cc(C(N)=O)c(Nc2ccc([C@H](O)C(F)(F)F)cc2)n1 (single isomer, unassigned) [Example 25-13, 1-[(1S,2S,4R or 1R,2R,4S)-2-cyano-4-hydroxycyclohexyl]-3-({4-[(1S or 1R)-2,2,2-trifluoro-1-hydroxyethyl]phenyl}amino)-1H-pyrazole-4-carboxamide]	0.25	3
N#C[C@H]1C[C@H](O)CC[C@@H]1n1cc(C(N)=O)c(Nc2ccc([C@@H](O)C(F)(F)F)cc2)n1 (single isomer, unassigned) [Example 25-15, 1-[(1S,2S,4R or 1R,2R,4S)-2-cyano-4-hydroxycyclohexyl]-3-({4-[(1R or 1S)-2,2,2-trifluoro-1-hydroxyethyl]phenyl}amino)-1H-pyrazole-4-carboxamide]	0.3	3
N#C[C@H]1C[C@H](O)CC[C@@H]1n1cc(C(N)=O)c(Nc2ccccc2)n1 (single isomer, unassigned) [Example 25-29, 1-[(1S,2S,4R or 1R,2R,4S)-2-cyano-4-hydroxycyclohexyl]-3-(phenylamino)-1H-pyrazole-4-carboxamide]	2	26
N#C[C@@H]1C[C@H](OCC2CC2)CC[C@H]1n1cc(C(N)=O)c(Nc2ccnc(F)c2)n1 (single isomer, unassigned) [Example 26-2, 1-[(1R,2R,4R or 1S,2S,4S)-2-cyano-4-(cyclopropylmethoxy)cyclohexyl]-3-[(2-fluoropyridin-4-yl)amino]-1H-pyrazole-4-carboxamide]	6	76
N#C[C@H]1C[C@@H](N2CCC2)CC[C@@H]1n1cc(C(N)=O)c(Nc2ccc(C(F)(F)F)cc2)n1 (single isomer, unassigned) [Example 28-1, 1-((1S,2S,4S or 1R,2R,4R)-4-(azetidin-1-yl)-2-cyanocyclohexyl)-3-((4-(trifluoromethyl)phenyl)amino)-1H-pyrazole-4-carboxamide]	0.4	23
CC(C)(O)C1CN([C@@H]2CC[C@H](n3cc(C(N)=O)c(Nc4ccc(C(F)(F)F)cc4)n3)[C@@H](C#N)C2)C1 (single isomer, unassigned) [Example 28-7, 1-{(1S,2S,4R or 1R,2R,4S)-2-cyano-4-[3-(1-hydroxy-1-methylethyl)azetidin-1-yl]cyclohexyl}-3-{[4-(trifluoro-methyl)phenyl]amino}-1H-pyrazole-4-carboxamide]	0.4	49

Continued, values first:

IC50 [1] [nM]	IC50 [2] [nM]	SMILES
0.55	3	N#Cc1ccc(Nc2nn([C@H]3CC[C@@H](O)C[C@@H]3C#N)cc2C(N)=O)cc1 (single isomer, unassigned) [Example 25-4, 1-[(1S,2S,4R or 1R,2R,4S)-2-cyano-4-hydroxycyclohexyl]-3-[(4-cyanophenyl)amino]-1H-pyrazole-4-carboxamide]
4	17	N#C[C@H]1C[C@H](O)CC[C@@H]1n1cc(C(N)=O)c(Nc2ccc(C(F)(F)F)nc2)n1 (single isomer, unassigned) [Example 25-10, 1-[(1S,2S,4R or 1R,2R,4S)-2-cyano-4-hydroxycyclohexyl]-3-{[6-(trifluoromethyl)pyridin-3-yl]amino}-1H-pyrazole-4-carboxamide]
3	10	N#C[C@H]1C[C@H](O)CC[C@@H]1n1cc(C(N)=O)c(Nc2ccc(C(F)F)nc2)n1 (single isomer, unassigned) [Example 25-16, 1-[(1S,2S,4R or 1R,2R,4S)-2-cyano-4-hydroxycyclohexyl]-3-{[6-(difluoromethyl)pyridin-3-yl]amino}-1H-pyrazole-4-carboxamide]
0.1	3	CS(=O)(=O)c1ccc(Nc2nn([C@H]3CC[C@@H](O)C[C@@H]3C#N)cc2C(N)=O)cc1 (single isomer, unassigned) [Example 25-28, 1-[(1S,2S,4R or 1R,2R,4S)-2-cyano-4-hydroxycyclohexyl]-3-{[4-(methylsulfonyl)phenyl]amino}-1H-pyrazole-4-carboxamide]
2	9	N#C[C@H]1C[C@H](OCC2CC2)CC[C@@H]1n1cc(C(N)=O)c(Nc2ccnc(F)c2)n1 (single isomer, unassigned) [Example 26-1, 1-[(1S,2S,4R or 1R,2R,4S)-2-cyano-4-(cyclopropylmethoxy)cyclohexyl]-3-[(2-fluoropyridin-4-yl)amino]-1H-pyrazole-4-carboxamide]
69	150	N#C[C@H]1C[C@H](OCC2CC2)CC[C@H]1n1cc(C(N)=O)c(Nc2ccnc(F)c2)n1 (single isomer, unassigned) [Example 26-3, 1-[(1R,2S,4R or 1S,2R,4S)-2-cyano-4-(cyclopropylmethoxy)cyclohexyl]-3-[(2-fluoropyridin-4-yl)amino]-1H-pyrazole-4-carboxamide]
21	74	N#C[C@@H]1C[C@H](OCC2CC2)CC[C@@H]1n1cc(C(N)=O)c(Nc2ccnc(F)c2)n1 (single isomer, unassigned) [Example 26-4, 1-[(1S,2R,4R or 1R,2S,4S)-2-cyano-4-(cyclopropylmethoxy)cyclohexyl]-3-[(2-fluoropyridin-4-yl)amino]-1H-pyrazole-4-carboxamide]
0.75	39	N#C[C@H]1C[C@@H](N2CCC2)CC[C@@H]1n1cc(C(N)=O)c(Nc2ccccc2)n1 (single isomer, unassigned) [Example 28-4, 1-((1R,2R,4R or 1S,2S,4S)-4-(Azetidin-1-yl)-2-cyanocyclohexyl)-3-(phenylamino)-1H-pyrazole-4-carboxamide]
3	64	N#C[C@H]1C[C@@H](NCC2CC2)CC[C@@H]1n1cc(C(N)=O)c(Nc2ccc(C(F)(F)F)cc2)n1 (single isomer, unassigned) [Example 28-10, 1-{(1S,2S,4S or 1R,2R,4R)-2-cyano-4-[(cyclopropyl-methyl)amino]cyclohexyl}-3-{[4-(trifluoromethyl)phenyl]amino}-1H-pyrazole-4-carboxamide]
0.9	22	N#C[C@H]1C[C@H](N2C[C@@H]3[C@@H](CO)[C@@H]3C2)CC[C@@H]1n1cc(C(N)=O)c(Nc2ccc(C(F)(F)F)cc2)n1 (single isomer, unassigned) [Example 28-15, 1-{(1S,2S,4R or 1R,2R,4S)-2-cyano-4-[(1R,5S,6R or 1S,5R,6S)-6-(hydroxymethyl)-3-azabicyclo[3.1.0]hex-3-yl]cyclohexyl}-3-{[4-(trifluoromethyl)phenyl]amino}-1H-pyrazole-4-carboxamide]
